# Assay results published in patent publication US20260317340A1, “COMPOUNDS, COMPOSITIONS, AND METHODS OF TREATING DISORDERS” (Chengdu Anticancer Bioscience, Ltd., priority 2023, published 2026).
# Read-outs that look alike come from different tables or passages of the source.
# Columns and labels:
# [1] = test system: RPE-Neo or RPE-MYC or RPE-MYC expressing an EGFP-Histone 2B fusion protein; assay: Phenotypic screening assay: arrest in mitosis, change in DNA content (polyploidy), cell death; type: cell-based; conditions: 20 nM to 20 μM, 24, 48 or 72 hours
# In short: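 RPE-Neo, RPE-MYC or RPE-MYC EGFP-H2B cells plated 18-24 h before treatment with compounds at 20 nM to 20 μM. Mitotic arrest or DNA-content change scored by automated imaging at 24, 48 or 72 h; proliferation by MTT. Values binned into A–D ranges.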
# [2] = test system: human cancer cell line NCI-H460; assay: Tumor growth inhibition, NCI-H460 tumors in BAL B/c nude mice; type: in vivo, human tumor cell line in BAL B/c nude mice; conditions: oral, 4 days-on, 3 days-off, 30% PEG300
# Experimental: (§1) Six- to seven-week-old female BAL B/c nude mice were used in the human cancer cell line NCI-H460, which was derived from a lung cancer patient. Six- to seven-week-old female BAL B/c mice were used in the mouse […] cell line CT26 allograft models. 100 μL cell suspensions containing one million cells with […] (Corning, Cat. No. 354254) were implanted subcutaneously into the right flank of mice. Mice were monitored daily for well-being and weighed twice weekly. Caliper measurements of tumor sizes began when tumors became visible. Tumor volume (TV) was calculated by measuring two perpendicular diameters using the following formula: (L×W2)/2 in which L and W refer to the length and width of a tumor, respectively. When tumors reached an average size of 100 mm3, mice were first ranked according to tumor size and divided into “n” cohorts with X mice in each cohort. Each cohort was then sorted into 1 to X groups according to the random numbers size order generated by the RAND 0)function in Excel. In this way, the mice were randomized into X groups (n=4-6). Then the mice were orally administrated with vehicle (30% PEG 300) or indicated compounds at a dose volume of 5 mL/kg in a double-blinded manner. Oral administration was chosen because this is the intended route of use in the clinic. In all cases, no tumor measurement data or animals were excluded from the data analysis. Percentage of tumor growth inhibition (TGI) was calculated using the following formula: % TGI=average 100×[1−(final TV−initial TV of treatment group)/(final TV−initial TV of control group)]. As set forth in table 3 below, an values of greater than or equal to 35% and less than or equal to 45% […] is marked “C”; a value greater than 45% and less than or equal to 55% is marked “B”; a value greater than 55% and less than or equal to 70% is marked “A”; and […]
# RPE-Neo or RPE-MYC cells = assay: MTT assay of cellular proliferation (proliferative arrest); type: cell-based; conditions: read-out: Min. Effective conc. for Proliferative arrest (>50%)
# [3] = Tumor growth inhibition, CT26 allograft in BAL B/c mice; type: in vivo, mouse tumor cell line in BAL B/c mice; conditions: oral, 20 days, 30% PEG300
# Experimental: as §1
# [4] = read-out: Min. Effective conc. for Along with Cell Death
# [5] = ≥5%, read-out: Min. Effective conc. for Mitotic Arrest (≥5%)
# [6] = ≥5%, read-out: Min. Effective conc. for Polyploidy (≥5%)
Compound,"minimal effective concentration [1, 4]","minimal effective concentration [1, 5]","minimal effective concentration [1, 6]",minimal effective concentration (RPE-Neo or RPE-MYC cells),further results
"COc1ccc(CN2C(=O)CC(c3ncc(C)o3)=Cc3ccc(-c4cnn(CCO)c4)cc32)cc1 [Compound 36, 8-(1-(2-hydroxyethyl)-1H-pyrazol-4-yl)-1-(4-methoxybenzyl)-4-(5-methyloxazol-2-yl)-1,3-dihydro-2H-benzo[b]azepin-2-one]",0.001 to 1 µM,0.001 to 1 µM,0.001 to 1 µM,0.001 to 1 µM,"TGI % ([2]; 15 mg/kg, 20 days): A (greater than 55% and less than or equal to 70%)"
"COc1ccc(CN2C(=O)CC(c3ncc(C)o3)=Cc3ccc(-c4cnn(CC(C)(C)O)c4)cc32)cc1 [Compound 37, 8-(1-(2-hydroxy-2-methylpropyl)-1H-pyrazol-4-yl)-1-(4-methoxybenzyl)-4-(5-methyloxazol-2-yl)-1,3-dihydro-2H-benzo[b]azepin-2-one]",0.001 to 1 µM,0.001 to 1 µM,0.001 to 1 µM,0.001 to 1 µM,"TGI % ([3]; 8 mg/kg, 3 days-on, 4 days-off): B (greater than 45% and less than or equal to 55%); TGI % ([2]; 8 mg/kg, 20 days): A (greater than 55% and less than or equal to 70%)"
"COc1ccc(CN2C(=O)CC(c3ncc(C)o3)=Cc3ccc(-c4cnn(CCN5CCOCC5)c4)cc32)cc1 [Compound 38, 1-(4-methoxybenzyl)-4-(5-methyloxazol-2-yl)-8-(1-(2-morpholinoethyl)-1H-pyrazol-4-yl)-1,3-dihydro-2H-benzo[b]azepin-2-one]",0.001 to 1 µM,0.001 to 1 µM,0.001 to 1 µM,0.001 to 1 µM,"TGI % ([2]; 36 mg/kg, 20 days): B (greater than 45% and less than or equal to 55%)"
"COc1ccc(CN2C(=O)CC(c3ncc(C)o3)=Cc3ccc(-c4ccc(N)nc4)cc32)cc1 [Compound 42, 8-(6-aminopyridin-3-yl)-1-(4-methoxybenzyl)-4-(5-methyloxazol-2-yl)-1,3-dihydro-2H-benzo[b]azepin-2-one]",0.001 to 1 µM,0.001 to 1 µM,0.001 to 1 µM,0.001 to 1 µM,"TGI % ([2]; 36 mg/kg, 13 days): C (greater than or equal to 35% and less than or equal to 45% μM)"
"COc1ccc(CN2C(=O)CC(c3ncc(C)o3)=Cc3ccc(-c4ccc(=O)n(C)c4)cc32)cc1 [Compound 45, 1-(4-methoxybenzyl)-8-(1-methyl-6-oxo-1,6-dihydropyridin-3-yl)-4-(5-methyloxazol-2-yl)-1,3-dihydro-2H-benzo[b]azepin-2-one]",0.001 to 1 µM,0.001 to 1 µM,0.001 to 1 µM,0.001 to 1 µM,"TGI % ([2]; 36 mg/kg, 20 days): A (greater than 55% and less than or equal to 70%)"
"COCCn1cc(-c2ccc3c(c2)N(Cc2ccc(OC)cc2)C(=O)CC(c2ncc(C)o2)=C3)cn1 [Compound 51, 1-(4-methoxybenzyl)-8-(1-(2-methoxyethyl)-1H-pyrazol-4-yl)-4-(5-methyloxazol-2-yl)-1,3-dihydro-2H-benzo[b]azepin-2-one]",0.001 to 1 µM,0.001 to 1 µM,0.001 to 1 µM,0.001 to 1 µM,"TGI % ([2]; 15 mg/kg, 29 days): A (greater than 55% and less than or equal to 70%)"
"COc1ccc(CN2C(=O)CC(c3ncc(C)o3)=Cc3ccc(-c4cnn(CC5CC5)c4)cc32)cc1 [Compound 53, 8-(1-(cyclopropylmethyl)-1H-pyrazol-4-yl)-1-(4-methoxybenzyl)-4-(5-methyloxazol-2-yl)-1,3-dihydro-2H-benzo[b]azepin-2-one]",0.001 to 1 µM,0.001 to 1 µM,0.001 to 1 µM,0.001 to 1 µM,"TGI % ([2]; 40 mg/kg, 20 days): C (greater than or equal to 35% and less than or equal to 45% μM)"
"COc1ccc(CN2C(=O)CC(c3ncc(C)o3)=Cc3ccc(-c4cnn(C5COC5)c4)cc32)cc1 [Compound 54, 1-(4-Methoxybenzyl)-4-(5-methyloxazol-2-yl)-8-(1-(oxetan-3-yl)-1H-pyrazol-4-yl)-1,3-dihydro-2H-benzo[b]azepin-2-one]",0.001 to 1 µM,0.001 to 1 µM,0.001 to 1 µM,0.001 to 1 µM,"TGI % ([2]; 50 mg/kg, 20 days): C (greater than or equal to 35% and less than or equal to 45% μM)"
"COCCCn1cc(-c2ccc3c(c2)N(Cc2ccc(OC)cc2)C(=O)CC(c2ncc(C)o2)=C3)cn1 [Compound 57, 1-(4-Methoxybenzyl)-8-(1-(3-methoxypropyl)-1H-pyrazol-4-yl)-4-(5-methyloxazol-2-yl)-1,3-dihydro-2H-benzo[b]azepin-2-one]",0.001 to 1 µM,0.001 to 1 µM,0.001 to 1 µM,0.001 to 1 µM,"TGI % ([2]; 80 mg/kg, 20 days): A (greater than 55% and less than or equal to 70%)"
"COc1ccc(CN2C(=O)CC(c3ncc(C)o3)=Cc3ccc(-c4cnn(CC(C)O)c4)cc32)cc1 (stereo not drawn) [Compound 61, 8-(1-(2-hydroxypropyl)-1H-pyrazol-4-yl)-1-(4-methoxybenzyl)-4-(5-methyloxazol-2-yl)-1,3-dihydro-2H-benzo[b]azepin-2-one]",0.001 to 1 µM,0.001 to 1 µM,0.001 to 1 µM,0.001 to 1 µM,"TGI % ([3]; 10 mg/kg, 4 days-on, 3 days-off): A (greater than 55% and less than or equal to 70%)"
"COc1ccc(CN2C(=O)CC(c3nnc(C4CC4)o3)=Cc3ccc(-c4cnn(CC(C)(C)O)c4)cc32)cc1 [Compound 94, 4-(5-Cyclopropyl-1,3,4-oxadiazol-2-yl)-8-(1-(2-hydroxy-2-methylpropyl)-1H-pyrazol-4-yl)-1-(4-methoxybenzyl)-1,3-dihydro-2H-benzo[b]azepin-2-one]",0.001 to 1 µM,0.001 to 1 µM,0.001 to 1 µM,0.001 to 1 µM,"TGI % ([3]; 8 mg/kg, 4 days-on, 3 days-off): B (greater than 45% and less than or equal to 55%)"
"COc1ccc(CN2C(=O)CC(c3cnco3)=Cc3ccc(-c4cnn(CC(C)(C)O)c4)cc32)cc1 [Compound 96, 8-(1-(2-Hydroxy-2-methylpropyl)-1H-pyrazol-4-yl)-1-(4-methoxybenzyl)-4-(oxazol-5-yl)-1,3-dihydro-2H-benzo[b]azepin-2-one]",0.001 to 1 µM,0.001 to 1 µM,0.001 to 1 µM,0.001 to 1 µM,"TGI % ([3]; 20 mg/kg, 4 days-on, 3 days-off): A (greater than 55% and less than or equal to 70%)"
"COc1ccc(C(=O)N2CCC(c3ncc(C)o3)=Cc3ccc(-c4cnn(CC(C)(C)O)c4)cc32)cc1F [Compound 106, (3-Fluoro-4-methoxyphenyl)(8-(1-(2-hydroxy-2-methylpropyl)-1H-pyrazol-4-yl)-4-(5-methyloxazol-2-yl)-2,3-dihydro-1H-benzo[b]azepin-1-yl)methanone]",0.001 to 1 µM,0.001 to 1 µM,0.001 to 1 µM,0.001 to 1 µM,–
"COc1ccc(CN2C(=O)CC(c3ncc(C)o3)=Cc3ccc(-c4cnn(C(C)(C)C(N)=O)c4)cc32)cc1F [Compound 107, 2-(4-(1-(3-fluoro-4-methoxybenzyl)-4-(5-methyloxazol-2-yl)-2-oxo-2,3-dihydro-1H-benzo[b]azepin-8-yl)-1H-pyrazol-1-yl)-2-methylpropanamide]",0.001 to 1 µM,0.001 to 1 µM,0.001 to 1 µM,0.001 to 1 µM,–
